Experimental data: patent US10160771B2, “Hepatitis C virus inhibitors and uses thereof in preparation of drugs” (priority 2014, dated 2018)

Legend:
[1] = tested on: HCV genotype 1b (HCV-1b) replicon cells; assay: HCV genotype 1b replicon luciferase assay (EC50); format: cell-based, hepatitis C virus genotype 1b (Con1 clone); settings: Hepatitis C virus, 72 h, 3 days, luciferase (Bright-Glo)
Method in brief: (§1)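 EC50 values come from nonlinear fitting of inhibition derived from replicon luciferase signal. Cells (8000/well) were treated 3 days with duplicate 6-point, 5-fold dilutions, starting at 100, 10 or 1 nM, with 0.5% DMSO.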

[2] = Cell Titer-fluor cell activity assay in HCV-1b replicon cells (CC50); format: cell-based
Method in brief: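 CC50 derived by nonlinear fitting of inhibition % from Cell Titer-fluor signal (405/515 nm, 30 min). Cells: genotype 1b Con1 replicon carrying E1202G, T1280I, K1846T, seeded 8000/well with compound for 3 days, 37 °C, 0.5% DMSO; 6 points, 5-fold dilution, top 100, 10 or 1 nM, duplicates.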

[3] = tested on: HCV genotype 1a (HCV-1a) replicon cells; assay: HCV genotype 1a replicon luciferase assay (EC50); format: cell-based, hepatitis C virus genotype 1a (H77 clone); settings: Hepatitis C virus, 72 h, 3 days, luciferase (Bright-Glo)
Method in brief: as §1

Row | Structure (SMILES) | EC50 [1] [nM] | CC50 at 3 days [2] [nM] | EC50 [3] [nM]
1 | COC(=O)N[C@H](C(=O)N1CCC[C@H]1c1ncc(-c2ccc(-c3ccc(-c4cnc(C5C6CCC(C6)[C@@H]5C(=O)N(NC(=O)OC)C(C)C)[nH]4)cc3)cc2Cl)[nH]1)C(C)C (stereo partly drawn) [AA_156] | 0.001 to 0.1 | > 1 | 1 to 10
2 | COC(=O)N[C@H](C(=O)N1CCC[C@H]1c1ccc(-c2ccc(-c3ccc(-c4cnc([C@@H]5CCCN5C(=O)[C@@H](NC(=O)OC)[C@@H](C)OC)[nH]4)cc3)cc2)[nH]1)C(C)C [AG_061_A] | 0.001 to 0.1 | > 1 | 0.101 to 1
3 | COC(=O)N[C@H](C(=O)N1CCC[C@H]1c1ncc(-c2ccc(-c3ccc(-c4cnc(C5C6CCC(C6)[C@@H]5C(=O)NC(C)c5cccnc5)[nH]4)cc3)cc2)[nH]1)[C@@H](C)OC (stereo partly drawn) [AA_251_C] | 1 to 10 | > 1 | 10 to 100
4 | COC(=O)N[C@H](C(=O)N1CCC[C@H]1c1ncc(-c2ccc(-c3ccc(-c4cnc(C5C6CCC(C6)[C@@H]5C(=O)N(NC(=O)OC)C5CCOCC5)[nH]4)cc3)cc2)[nH]1)C(C)C (stereo partly drawn) [AA_158] | 0.001 to 0.1 | > 1 | 1 to 10
5 | COC(=O)N[C@H](C(=O)N1CCC[C@H]1c1ncc(-c2ccc(-c3ccc(-c4cnc([C@H]5C6CCC(C6)[C@@H]5C(=O)NCc5cncnc5)[nH]4)cc3)cc2)[nH]1)C(C)C (stereo partly drawn) [AA_201_A] | 0.001 to 0.1 | > 1 | 0.101 to 1
6 | COC(=O)N[C@H](C(=O)N1CCC[C@H]1c1ncc(-c2ccc(-c3ccc(-c4cnc(C5C6CCC(C6)[C@@H]5C(=O)NCc5cccc(N)c5)[nH]4)cc3)cc2)[nH]1)[C@@H](C)OC (stereo partly drawn) [AA_226] | 0.001 to 0.1 | > 1 | 10 to 100
7 | COC(=O)N[C@H](C(=O)N1CCC[C@H]1c1ncc(-c2ccc(-c3ccc(-c4cnc([C@@H]5C6CCC(C6)[C@H]5C(=O)NCc5ccc(C(F)(F)F)nc5)[nH]4)cc3)cc2)[nH]1)C(C)C (stereo partly drawn) [AA_232_B] | 0.001 to 0.1 | > 1 | 1 to 10
8 | COC(=O)N[C@H](C(=O)N1CCC[C@H]1c1[nH]c(-c2ccc(-c3ccc(-c4cnc([C@@H]5CCCN5C(=O)[C@@H](NC(=O)OC)C5CC5)[nH]4)cc3)cc2)c2c1CCC2)C(C)C [AG_086] | 0.001 to 0.1 | > 1 | 10 to 100
9 | COC(=O)N[C@H](C(=O)N1CCC[C@H]1c1ncc(-c2ccc(-c3ccc(-c4cnc([C@H]5C6CCC(C6)[C@@H]5C(=O)NCc5ccc(C(C)C)nc5)[nH]4)cc3)cc2)[nH]1)C(C)C (stereo partly drawn) [AA_236_A] | 0.001 to 0.1 | > 1 | 10 to 100
10 | COC(=O)N[C@H](C(=O)N1CCC[C@H]1c1[nH]c(-c2ccc(-c3ccc(-c4cnc([C@@H]5CCCN5C(=O)[C@@H](NC(=O)OC)[C@@H](C)OC)[nH]4)cc3)cc2)c2c1CCCC2)C(C)C [AG_067] | 0.001 to 0.1 | > 1 | 10 to 100
11 | COC(=O)N[C@H](C(=O)N1CCC[C@H]1c1ncc(-c2ccc(-c3ccc(-c4cnc([C@H]5CCCC[C@@H]5C(=O)NCc5cncc(C)c5)[nH]4)cc3)cc2)[nH]1)C(C)C [AA_184] | 0.101 to 1 | > 5 | 10 to 100
12 | COC(=O)N[C@H](C(=O)N1CCC[C@H]1c1ncc(-c2ccc(-c3ccc(-c4cnc([C@H]5C6CCC(C6)[C@@H]5C(=O)NCc5cccnc5)[nH]4)cc3)c(F)c2)[nH]1)C(C)C (stereo partly drawn) [AA_197_A] | 0.001 to 0.1 | > 1 | 1 to 10
13 | COC(=O)N[C@H](C(=O)N1CCCC1c1[nH]c(-c2ccc(-c3ccc(-c4cnc([C@@H]5CCCN5C(=O)[C@@H](NC(=O)OC)C(C)C)[nH]4)cc3)cc2)c2c1COC2)C(C)C (stereo partly drawn) [AG_060] | 0.001 to 0.1 | > 1 | 0.101 to 1
14 | COC(=O)N[C@H](C(=O)N1CCC[C@H]1c1ncc(-c2ccc(-c3ccc(-c4cnc(C5C6CCC(C6)[C@H]5C(=O)N[C@@H](C)c5ccccc5)[nH]4)cc3)cc2)[nH]1)[C@@H](C)OC (stereo partly drawn) [AA_262_B] | 0.001 to 0.1 | > 1 | 0.101 to 1
15 | COC(=O)N[C@H](C(=O)N1CCC[C@H]1c1ncc(-c2ccc(-c3ccc(-c4cnc(C5C6CCC(C6)[C@H]5C(=O)NCc5cnccn5)[nH]4)cc3)cc2)[nH]1)[C@@H](C)OC (stereo partly drawn) [AA_268_B] | 0.001 to 0.1 | > 1 | 1 to 10
16 | COC(=O)N[C@H](C(=O)N1CCC[C@H]1c1ncc(-c2ccc(-c3ccc(-c4cnc(C5C6CCC(C6)[C@@H]5C(=O)NCc5cncc(C(C)C)c5)[nH]4)cc3)cc2)[nH]1)[C@@H](C)OC (stereo partly drawn) [AA_254_A] | 0.101 to 1 | > 1 | 10 to 100
17 | COC(=O)N[C@H](C(=O)N1CCC[C@H]1c1ncc(-c2ccc(-c3ccc(-c4cnc([C@H]5C6CCC(C6)[C@@H]5C(=O)NCc5nccs5)[nH]4)cc3)cc2)[nH]1)C(C)C (stereo partly drawn) [AA_208_A] | 0.001 to 0.1 | > 1 | 1 to 10

Row | Structure (SMILES) | EC50 [1] [nM] | CC50 at 3 days [2] [nM] | EC50 [3] [nM]
18 | COC(=O)N[C@H](C(=O)N1CCC[C@H]1c1ncc(-c2ccc(-c3ccc(-c4cnc(C5C6CCC(C6)[C@H]5C(=O)N[C@H](C)c5cccnc5)[nH]4)cc3)cc2)[nH]1)[C@@H](C)OC (stereo partly drawn) [AA_253_B] | 0.101 to 1 | > 1 | 10 to 100
19 | COC(=O)N[C@H](C(=O)N1CCC[C@H]1c1ncc(-c2ccc(-c3ccc(-c4cnc([C@H]5C6CCC(C6)[C@@H]5C(=O)NCc5cccnc5F)[nH]4)cc3)cc2)[nH]1)C(C)C (stereo partly drawn) [AA_224_A] | 0.001 to 0.1 | > 1 | 1 to 10
20 | COC(=O)N[C@H](C(=O)N1CCC[C@H]1c1ncc(-c2ccc(-c3ccc(-c4cnc([C@H]5C6CCC(C6)[C@@H]5C(=O)NCc5cccnc5O)[nH]4)cc3)cc2)[nH]1)C(C)C (stereo partly drawn) [AA_228] | 0.001 to 0.1 | > 1 | 1 to 10
21 | COC(=O)N[C@H](C(=O)N1CCC[C@H]1c1ncc(-c2ccc(-c3ccc(-c4cnc([C@H]5C6CCC(C6)[C@@H]5C(=O)NCCc5ccncc5)[nH]4)cc3)cc2)[nH]1)C(C)C (stereo partly drawn) [AA_209_A] | 0.001 to 0.1 | > 1 | 10 to 100
22 | COC[C@H](NC(=O)OC)C(=O)N1CCC[C@H]1c1ccc(-c2ccc(-c3ccc(-c4cnc([C@@H]5CCCN5C(=O)[C@H](COC)NC(=O)OC)[nH]4)cc3)cc2)[nH]1 [AG_109] | 0.001 to 0.1 | > 1 | 0.101 to 1
23 | COC(=O)N[C@H](C(=O)N1CC2(CC2)C[C@H]1c1ncc(-c2ccc(-c3ccc(-c4[nH]c([C@@H]5CCCN5C(=O)[C@@H](NC(=O)OC)[C@@H](C)OC)c5c4COC5)cc3)cc2)[nH]1)C(C)C [AG_117] | 0.001 to 0.1 | > 1 | 0.101 to 1
24 | COC(=O)N[C@H](C(=O)N1CCC[C@H]1c1[nH]c(-c2ccc(-c3ccc(-c4cnc([C@@H]5CCCN5C(=O)[C@@H](NC(=O)OC)[C@@H](C)OC)[nH]4)cc3)cc2)c2c1CCC2)C(C)C [AG_066] | 0.001 to 0.1 | > 1 | 1 to 10
25 | COC(=O)N[C@H](C(=O)N1CCCC1c1ncc(-c2ccc(-c3ccc(-c4cnc([C@@H]5C6CCC(C6)C5C(=O)NCc5cccnc5)[nH]4)cc3)c(F)c2)[nH]1)[C@@H](C)OC (stereo partly drawn) [AA_280_A] | 0.001 to 0.1 | > 1 | 1 to 10
26 | COC(=O)N[C@H](C(=O)N1CCCC1c1ncc(-c2ccc(-c3ccc(-c4[nH]c(C5CCCN5C(=O)[C@@H](NC(=O)OC)C(C)C)c5c4CCCC5)cc3)cc2)[nH]1)C(C)C (stereo partly drawn) [AG_014] | 0.101 to 1 | > 10 | 10 to 100
27 | COC(=O)N[C@H](C(=O)N1C[C@@H](OC)C[C@H]1c1ncc(-c2ccc(-c3ccc(-c4cnc([C@@H]5C6CCC(C6)[C@H]5C(=O)NCc5cccnc5)[nH]4)cc3)cc2)[nH]1)[C@@H](C)OC (stereo partly drawn) [AA_231_A] | 0.001 to 0.1 | > 1 | 0.101 to 1
28 | COC[C@H](NC(=O)OC)C(=O)N1CCC[C@H]1c1ncc(-c2ccc(-c3ccc(-c4[nH]c([C@@H]5CCCN5C(=O)[C@@H](NC(=O)OC)C(C)OC)c5c4COC5)cc3)cc2)[nH]1 (stereo partly drawn) [AG_113] | 0.001 to 0.1 | > 1 | 0.101 to 1
29 | COC(=O)N[C@H](C(=O)N1CCC[C@H]1c1ncc(-c2ccc(-c3ccc(-c4cnc([C@@H]5[C@H]6CC[C@H](C6)[C@H]5C(=O)N[C@H](c5cccnc5)C(C)C)[nH]4)cc3)cc2)[nH]1)C(C)C [AA_233_ENDOA2_A] | 0.001 to 0.1 | > 1 | 0.101 to 1
30 | COC(=O)N[C@H](C(=O)N1CCC[C@H]1c1ncc(-c2ccc(-c3ccc(-c4cnc(C5[C@H]6CC[C@H](C6)[C@H]5C(=O)NCc5cccnc5F)[nH]4)cc3)cc2)[nH]1)C(C)C (stereo partly drawn) [AA_224_ENDOA2] | 0.001 to 0.1 | > 1 | 0.101 to 1
31 | COC(=O)N[C@H](C(=O)N1CCC[C@H]1c1ncc(-c2ccc(-c3ccc(-c4cnc(C5C6CCC(C6)[C@@H]5C(=O)NCc5cccnc5F)[nH]4)cc3)cc2)[nH]1)[C@@H](C)OC (stereo partly drawn) [AA_252_A] | 0.101 to 1 | > 1 | 1 to 10
32 | COC(=O)N[C@H](C(=O)N1CCC[C@H]1c1ncc(-c2ccc(-c3ccc(-c4cnc([C@@H]5C6CCC(C6)[C@H]5C(=O)N(C)c5ccccn5)[nH]4)cc3)cc2)[nH]1)C(C)C (stereo partly drawn) [AA_195_B] | 0.001 to 0.1 | > 1 | 1 to 10
33 | COC(=O)N[C@H](C(=O)N1CCC[C@H]1c1ncc(-c2ccc(-c3ccc(-c4cnc([C@@H]5[C@H]6CC[C@H](C6)[C@H]5C(=O)N[C@H](CO)c5cccnc5)[nH]4)cc3)cc2)[nH]1)C(C)C [AA_243_ENDOA2_B] | 0.001 to 0.1 | > 1 | 0.101 to 1
